Patent publication US7973055B2, “Crystalline forms of a biphenyl compound” (Theravance, Inc., priority 2006, dated 2011)

How the values were obtained:
hM3 receptor (CHO cells) = target: T1, hM3 receptor (CHO cells) (Homo sapiens, UniProt P20309); experiment: Blockade of agonist-mediated calcium release via FLIPR; type: cell-based; conditions: CHO cells stably expressing hM3, FLIPR; this or a similar assay
T1 construct: expressed in transfected cells
Description: Muscarinic receptor subtypes (M1, M3 and M5 receptors), which couple to Gq proteins, activate the phospholipase C (PLC) pathway upon agonist binding to the receptor. As a result, activated PLC hydrolyzes phosphatyl inositol diphosphate (PIP2) to diacylglycerol (DAG) and […] (IP3), which in turn generates calcium release from intracellular stores, i.e., endoplasmic and sarcoplasmic reticulum. The FLIPR (Molecular Devices, Sunnyvale, Calif.) assay capitalizes on this increase in intracellular calcium by using a calcium sensitive dye (Fluo-4AM, Molecular Probes, Eugene, Oreg.) that fluoresces when free calcium binds. This fluorescence event was measured in real time by the FLIPR, which detected the change in fluorescence from a monolayer of cells cloned with human M1 and M3, and chimpanzee M5 receptors. Antagonist potency was determined by the ability of antagonists to inhibit agonist-mediated increases in intracellular calcium.
For FLIPR calcium stimulation assays, CHO cells stably expressing the hM1, hM3 and cM5 receptors were seeded into 96-well FLIPR plates the night before the assay was done. […]
To determine antagonist potency, the dose-dependent stimulation of intracellular Ca^2+ release for oxotremorine was first determined so that antagonist potency can later be measured against oxotremorine stimulation at an EC90 concentration. […]

[1] = target: T2, hM2 receptor (CHO-K1 cells) (Homo sapiens, UniProt P08172); experiment: Blockade of agonist-mediated inhibition of cAMP accumulation; type: cell-based; conditions: CHO-K1 cells expressing hM2; this or a similar assay; read-out: Ki for blockade of oxotremorine-inhibition of forskolin-mediated cAMP accumulation
T2 construct: expressed in transfected cells; host or cells: CHO-K1 cells
T2 sequence (P08172 1-466): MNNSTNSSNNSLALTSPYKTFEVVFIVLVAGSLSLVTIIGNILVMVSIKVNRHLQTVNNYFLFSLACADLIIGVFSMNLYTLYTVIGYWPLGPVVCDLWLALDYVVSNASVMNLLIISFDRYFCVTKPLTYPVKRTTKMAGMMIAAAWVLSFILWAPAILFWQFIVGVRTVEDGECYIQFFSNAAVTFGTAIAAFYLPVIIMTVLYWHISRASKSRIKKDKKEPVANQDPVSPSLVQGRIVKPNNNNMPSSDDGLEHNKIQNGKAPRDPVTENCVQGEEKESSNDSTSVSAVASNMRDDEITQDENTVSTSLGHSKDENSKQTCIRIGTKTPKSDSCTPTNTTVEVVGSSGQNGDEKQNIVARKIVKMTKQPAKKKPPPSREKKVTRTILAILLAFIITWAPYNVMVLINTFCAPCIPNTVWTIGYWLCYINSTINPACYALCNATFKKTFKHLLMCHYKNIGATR
Procedure: In this assay, the functional potency of a test compound was determined by measuring the ability of the test compound to block oxotremorine-inhibition of forskolin-mediated cAMP accumulation in CHO-K1 cells expressing the hM2 receptor. cAMP assays were performed in a radioimmunoassay format using the Flashplate Adenylyl Cyclase Activation Assay System with ^125I-cAMP (NEN SMP004B, PerkinElmer Life Sciences Inc., Boston, Mass.), according to the manufacturer's instructions.
Cells were rinsed once with dPBS and lifted with Trypsin-EDTA solution (0.05% trypsin/0.53 mM EDTA) as described in the Cell Culture and Membrane Preparation section above. […] The cell pellet was then re-suspended in 10 mL dPBS, and the cells were counted with a Coulter Z1 Dual Particle Counter (Beckman Coulter, Fullerton, Calif.). […]
To measure oxotremorine inhibition of AC activity, 25 μL forskolin (25 μM final concentration diluted in dPBS), 25 μL diluted oxotremorine, and 50 μL cells were added to agonist assay wells. […] Plates were sealed, incubated overnight at room temperature and counted the next morning on a PerkinElmer TopCount liquid scintillation counter (PerkinElmer Inc., Wellesley, Mass.). The amount of cAMP produced (pmol/well) was calculated based on the counts observed for the samples and cAMP standards, as described in the manufacturer's user manual. […]

T1 sequence (P20309 whole entry): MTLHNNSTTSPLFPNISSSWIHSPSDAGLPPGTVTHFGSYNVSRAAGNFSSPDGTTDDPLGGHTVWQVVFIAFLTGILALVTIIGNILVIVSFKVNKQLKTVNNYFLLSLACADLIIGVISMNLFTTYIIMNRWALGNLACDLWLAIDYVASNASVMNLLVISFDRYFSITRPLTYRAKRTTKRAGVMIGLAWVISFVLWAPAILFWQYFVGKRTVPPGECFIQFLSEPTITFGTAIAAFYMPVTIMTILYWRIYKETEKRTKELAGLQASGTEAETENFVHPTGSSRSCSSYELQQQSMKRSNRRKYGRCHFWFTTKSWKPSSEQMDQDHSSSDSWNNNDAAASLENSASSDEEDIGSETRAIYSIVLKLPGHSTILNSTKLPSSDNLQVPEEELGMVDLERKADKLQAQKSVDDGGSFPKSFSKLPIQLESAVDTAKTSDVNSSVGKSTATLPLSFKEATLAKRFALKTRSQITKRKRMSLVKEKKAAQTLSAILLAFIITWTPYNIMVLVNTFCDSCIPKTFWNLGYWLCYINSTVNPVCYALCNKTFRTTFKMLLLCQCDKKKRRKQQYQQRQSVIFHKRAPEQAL

SMILES: CN(CCN1CCC(OC(=O)Nc2ccccc2-c2ccccc2)CC1)C(=O)c1cccc(C(=O)NCCNCc2ccc(O)cc2)c1 [compound of formula I, biphenyl-2-ylcarbamic acid 1-[2-({3-[2-(4-hydroxybenzylamino)ethylcarbamoyl]benzoyl}methylamino)ethyl]piperidin-4-yl ester]
- Ki (hM3 receptor (CHO cells)): < 10 nM
- Ki [1]: < 5 nM
